The nature of this data set: RP, Restek Raptor Biphenyl, 100 × 2.1 mm, 2.7 µm, 50 °C, 0.4 mL/min, estimated dead time 0.55 min; A: water + 0.1% formic acid, pH 3; B: methanol + 0.1% formic acid, pH 3; gradient (min/%B) 0/5 1.12/5 6.41/99.5 10.01/99.5. Particulars: stereoisomer not certain.

Counter-ions that a name gives are not always drawn.

For `CC(C)CCCCCCCCCCCCCCC(=O)O` [Isostearic acid], the LC retention time is 6.67 min.
To `O=C(O)c1cc(=O)c2ccccc2[nH]1` [Kynurenic acid] belongs 3.58 min; to `O=C1O[C@H]([C@@H](O)CO)C(O)=C1O` [L-Ascorbic acid], 3.46 min; to `N[C@@H](Cc1ccc(O)c(O)c1)C(=O)O` [L-DOPA], 0.702 min.
For `O=C(O)CC[C@H](O)C(=O)O` [L-α-Hydroxyglutaric acid disodium salt], the LC retention time was 0.746 min.
The value for `CCCCCCCCCCCC(=O)OC(CC(=O)[O-])C[N+](C)(C)C` [Lauroyl-L-carnitine] was 5.46 min; that for `O=c1[nH]c2c(c(=O)n1C1CCCCC1)CCC2` [Lenacil] was 5.48 min.
To `CCC=CCC=CCC=CCCCCCCCC(=O)O` [Linolenic acid] belongs 6.53 min.
For `O=C(O)CC(O)C(=O)O` (configuration not stated) [MALATE], the LC retention time is 0.676 min.
To `O=C(O)C(O)c1ccccc1` (configuration not stated) [MANDELATE] belongs 2.98 min; to `Cc1c(=O)c(=O)c2c3c[nH]c4c(C)c(=O)c(=O)c(c5c[nH]c1c52)c43` [MELANIN], 5.67 min.
To `COc1ccc2[nH]cc(CCNC(C)=O)c2c1` [MELATONIN] belongs 4.57 min; to `CSCC1OC(n2cnc3c(N)ncnc32)C(O)C1O` (configuration not stated) [METHYLTHIOADENOSINE], 3.18 min; to `CCCCCCCCCCCCCCCCCCCCCCCCCCCCCC(=O)O` [Melissic acid], 7.12 min.
Regarding `COC(=O)c1ccc(CNS(C)(=O)=O)cc1S(=O)(=O)NC(=O)Nc1nc(OC)cc(OC)n1` [Mesosulfuron-methyl], the LC retention time was 6.04 min.
The value for `CC1(C)CCC(Cc2ccc(Cl)cc2)C1(O)Cn1cncn1` (configuration not stated) [Metconazole] was 6.09 min; that for `CC(C(=O)O)C(=O)O` [Methylmalonic acid] was 0.96 min; that for `CCCCCCCCCCCCCC(=O)OC(CC(=O)[O-])C[N+](C)(C)C` [Myristoyl-L-carnitine] was 5.74 min.
To `CCC(C)C(=O)NCC(=O)O` (configuration not stated) [N-(2-Methylbutyryl)glycine] belongs 2.83 min; to `O=C(O)CNC(=O)C=Cc1ccccc1` [N-(CINNAMOYL)GLYCINE], 4.42 min.
As to `CC(=O)NC(C)C(=O)O` (configuration not stated) [N-ACETYLALANINE], the LC retention time was 1.05 min.
The value for `CC(=O)NC(CC(N)=O)C(=O)O` (configuration not stated) [N-ACETYLASPARAGINE] was 0.702 min; that for `CC(=O)NC(CC(C)C)C(=O)O` (configuration not stated) [N-ACETYLLEUCINE] was 3.63 min.
With `CSCCC(NC(C)=O)C(=O)O` (configuration not stated) [N-ACETYLMETHIONINE], the LC retention time was 3.04 min.
With `CC(=O)NC(Cc1ccccc1)C(=O)O` (configuration not stated) [N-ACETYLPHENYLALANINE], the LC retention time is 4.06 min.
Consider `CC(=O)NCCc1c[nH]c2ccc(O)cc12` [N-ACETYLSEROTONIN], for which the LC retention time was 3.58 min.
Consider `CC(=O)NC(Cc1c[nH]c2ccccc12)C(=O)O` (configuration not stated) [N-ACETYLTRYPTOPHAN], for which the LC retention time is 4.12 min.
The value for `CC(=O)N[C@@H](CC(=O)O)C(=O)O` [N-Acetyl-L-aspartic acid] was 0.77 min.
Turning to `CC(=O)N[C@@H](Cc1ccc(O)cc1)C(=O)O` [N-Acetyl-L-tyrosine], the LC retention time was 2.88 min.
To `NC(=O)c1ccc[n+](C2OC(COP(=O)([O-])OP(=O)(O)OCC3OC(n4cnc5c(N)ncnc54)C(OP(=O)(O)O)C3O)C(O)C2O)c1` (configuration not stated) [NADP] belongs 0.746 min; to `CCCCCCCCC=CCCCCCCCCCCCCCC(=O)O` [Nervonic acid], 6.93 min; to `CCN(Cc1ccc(Cl)nc1)C(=C[N+](=O)[O-])NC` [Nitenpyram], 3.63 min.
To `CCCCCCCCCCCCCCCCCCC(=O)O` [Nonadecanoic acid] belongs 6.72 min; to `CC(CC(=O)O)C1CCC2C3CCC4CC(O)CCC4(C)C3CC(O)C12C` (configuration not stated) [Nor-Desoxycholic Acid], 6.24 min; to `CC(CCC(=O)O)C1CCC2C3C(=O)CC4CC(O)CCC4(C)C3CCC12C` (configuration not stated) [Nutriacholic Acid], 6.42 min.
For the compound `CCCCCCCCCCCCCCCCCCCCCCCCCCCC(=O)O` [Octacosanoic acid], the LC retention time is 7.08 min.
To `Cn1c(=O)[nH]c2ncn(C)c2c1=O` [PARAXANTHINE] belongs 3.54 min; to `CCCCCCCCCCCC=CCCCCC(=O)O` [PETROSELINATE], 6.63 min; to `CC(=O)Oc1ccccc1` [PHENYL ACETATE], 2.46 min.
The value for `O=C(O)Cc1ccccc1` [PHENYLACETATE] was 2.46 min; that for `CC(=O)C1CCC2C3CC=C4CC(OS(=O)(=O)O)CCC4(C)C3CCC12C` (configuration not stated) [PREGNENOLONE SULFATE] was 6.51 min; that for `c1ncc2[nH]cnc2n1` [PURINE] was 1.29 min.
With `O=C(O)c1ccc[nH]1` [PYRROLE-2-CARBOXYLATE], the LC retention time was 3.3 min.
The value for `CCCCCCCCCCCCCCCC(=O)O` [Palmitic acid] was 6.54 min.
The value for `CCCCCCCCCCCCCCCCCCCCCCCCC(=O)O` [Pentacosanoic Acid] was 6.98 min; that for `CCCCCCCCCCCCCCC(=O)O` [Pentadecanoic acid] was 6.44 min.
To `O=C(O)C(=O)Cc1ccccc1` [Phenylpyruvic acid] belongs 2.88 min; to `CC(C)CCCC(C)CCCC(C)CCCC(C)CC(=O)O` (configuration not stated) [Phytanic acid], 6.68 min; to `C#CC(C)(C)NC(=O)c1cc(Cl)cc(Cl)c1` [Propyzamide], 5.6 min.
For the compound `O=C(O)c1cccnc1C(=O)O` [QUINOLINATE], the LC retention time is 1 min.
Turning to `Cc1cc2nc3c(=O)[nH]c(=O)nc-3n(CC(O)C(O)C(O)CO)c2cc1C` (configuration not stated) [RIBOFLAVIN], the LC retention time was 4.45 min.
To `CCCCCCC(O)CC=CCCCCCCCC(=O)O` (configuration not stated) [Ricinoleic acid] belongs 6.18 min; to `CCCCCCSCC(NC(=O)CCC(N)C(=O)O)C(=O)NCC(=O)O` (configuration not stated) [S-HEXYL-GLUTATHIONE], 4.59 min; to `O=C(O)CCCCCCCCC(=O)O` [SEBACATE], 4.87 min.
On to `C=CCNC(=O)c1c([Si](C)(C)C)sc(C)c1C` [Silthiofam], for which the LC retention time is 6 min.
`CCCCCCCCCCCCCCCCCC(=O)O` [Stearic acid]: the LC retention time is 6.67 min.
Regarding `CCCCCCCCCCCCCCCCCC(=O)OC(CC(=O)[O-])C[N+](C)(C)C` [Stearoyl-L-carnitine], the LC retention time was 6.13 min.
On to `O=C(O)CCC(=O)O` [Succinic acid], for which the LC retention time was 0.909 min.
Turning to `Cc1nn(-c2cc(NS(C)(=O)=O)c(Cl)cc2Cl)c(=O)n1C(F)F` [Sulfentrazone], the LC retention time was 5.29 min.
To `Cn1c(=O)c2[nH]cnc2n(C)c1=O` [THEOPHYLLINE] belongs 3.54 min.
The value for `CSc1ncnc2nc[nH]c12` [THIOPURINE S-METHYLETHER] was 3.77 min; that for `Cc1cn(C2CC(O)C(COP(=O)(O)O)O2)c(=O)[nH]c1=O` (configuration not stated) [THYMIDINE-MONOPHOSPHATE] was 0.837 min; that for `Cc1cn(C2CC(O)C(CO)O2)c(=O)[nH]c1=O` (configuration not stated) [THYMIDINE] was 2.18 min.
The value for `NC(=O)C1CCCN1C(=O)C(Cc1cnc[nH]1)NC(=O)C1CCC(=O)N1` (configuration not stated) [THYROTROPIN RELEASING HORMONE] was 1.99 min; that for `NC(Cc1c[nH]c2ccccc12)C(=O)O` (configuration not stated) [TRYPTOPHAN] was 2.53 min; that for `NC(Cc1ccc(O)cc1)C(=O)O` (configuration not stated) [TYROSINE] was 0.796 min.
For the compound `CC(CCC(=O)NCCS(=O)(=O)O)C1CCC2C3C(O)CC4CC(O)CCC4(C)C3CC(O)C12C` (configuration not stated) [Taurocholic acid sodium salt hydrate], the LC retention time was 5.83 min.
The value for `CC(CCC(=O)NCCS(=O)(=O)O)C1CCC2C3CCC4CC(O)CCC4(C)C3CC(O)C12C` (configuration not stated) [Taurodeoxycholic acid] was 6.16 min.
As for `CC(CCC(=O)NCCS(=O)(=O)O)C1CCC2C3CCC4CC(O)CCC4(C)C3CCC12C` (configuration not stated) [Taurolithocholic acid], the LC retention time is 6.47 min.
The value for `CCc1ccc(C(=O)NN(C(=O)c2cc(C)cc(C)c2)C(C)(C)C)cc1` [Tebufenozide] was 6.04 min; that for `O=C(Nc1ccccc1)Nc1cnns1` [Thidiazuron] was 4.75 min; that for `CC=C(C)C(=O)NCC(=O)O` [Tiglyl Glycine] was 2.95 min.
Turning to `O=C(O)CC(CC(=O)O)C(=O)O` [Tricarballylic acid], the LC retention time is 0.842 min.
To `CCCCCCCCCCCCCCCCCCCCCCC(=O)O` [Tricosanoic acid] belongs 6.91 min.
With `CC1(C)CCC(=Cc2ccc(Cl)cc2)C1(O)Cn1cncn1` (configuration not stated) [Triticonazole], the LC retention time was 5.93 min.
Consider `O=c1cc[nH]c(=O)[nH]1` [URACIL], for which the LC retention time was 0.702 min.
To `O=c1[nH]c(=O)c2[nH]c(=O)[nH]c2[nH]1` [URATE] belongs 0.774 min.
With `O=c1[nH]c(=O)c2[nH]cnc2[nH]1` [XANTHINE], the LC retention time is 0.933 min.
On to `O=c1[nH]c(=O)c2ncn(C3OC(COP(=O)(O)O)C(O)C3O)c2[nH]1` (configuration not stated) [XANTHOSINE-MONOPHOSPHATE], for which the LC retention time was 0.695 min.
In the case of `O=c1[nH]c(=O)c2ncn(C3OC(CO)C(O)C3O)c2[nH]1` (configuration not stated) [XANTHOSINE], the LC retention time is 1.47 min.
To `O=C(O)c1cc(=O)c2cccc(O)c2[nH]1` [Xanthurenic acid] belongs 3.14 min; to `CCCCCCCCCC(O)CC(=O)OC(CC(=O)[O-])C[N+](C)(C)C` [[(3R)-3-Hydroxydodecanoyl]-L-carnitine], 5.15 min.

The values are drawn from the RepoRT retention time repository.
